We go through nine compounds from US11319316B2, “Compounds that induce degradation of anti-apoptotic Bcl-2 family proteins and the uses thereof” (BioVentures, LLC, priority 2016, dated 2022).

What all share (format): cell-based
One assay has as its system Normal WI38 (NSC). The assay can be described thus: Viability of normal WI38 cells (NSC), 72 h, PI staining and flow cytometry. The note with it: Homo sapiens, WI-38, viable (PI-) cells as percentage of vehicle control. Here is the method:
(§1) Normal WI38 (NSC) and IR-induced senescent WI38 cells (IR-SC) were incubated with vehicle or increasing concentrations of compounds of Formula (I) or Formula (II) for 72 hours. The cells were digested with 0.25% trypsin and 1 mM EDTA, and harvested in PBS containing 2% FBS. After incubation with propidium iodide (PI, 100 ng/ml) in PBS at room temperature for 1 minute, cells were centrifuged at 1,200 rpm for 6 minutes to remove PI and then resuspended in PBS containing 2% FBS for analysis using a flow cytometer. Viable cells (PI-cells) were analyzed by flow cytometry at a constant flow rate to count the number of cells and calculated as a percentage of control cells treated with vehicle. Table 1 depicts the EC50 values of the compounds of Formula (I) and compounds of Formula (II) against normal WI38 and IR-induced senescent WI38.

A further assay concerns NCI-H146 cancer cells. The experiment in a line: Cancer cell viability by MTS, 72 h, NCI-H146. The note with it: Homo sapiens. Here is the method: (§2) RS4; 11 and NCI-H146 cancer cells were incubated with vehicle or increasing concentrations of compounds of Formula (I) and Formula (II). At 72 hours post-treatment cell viability was measured by MTS and EC50 was calculated as a percentage of control cells treated with vehicle. Table 1 depicts the EC50 values of compounds of Formula (I) and Formula (II) against RS4; 11 and NCI-H146.

The subject of assay [1] is IR-induced senescent WI38 cells (IR-SC). The assay can be described thus: Viability of IR-induced senescent WI38 cells (IR-SC), 72 h, PI staining and flow cytometry. To be noted: for EC50: Homo sapiens, WI-38, IR-induced senescent WI38 cells, 72 hours, viable (PI-) cells as percentage of vehicle control; for Ratio NSC/SC: ratio of WI38 EC50 in NSC to EC50 in IR-SC. Here is the method:
as §1

The subject of another assay is RS4; 11 cancer cells. The experiment in a line: Cancer cell viability by MTS, 72 h, RS4;11. To be noted: Homo sapiens, RS4;11 cells. How it is done:
as §2

As to `CC1(C)CCC(c2ccc(Cl)cc2)=C(CN2CCN(c3ccc(C(=O)NS(=O)(=O)c4ccc(N[C@H](CCN5CCN(C(=S)NCCOCCOCCNc6cccc7c6C(=O)N(C6CCC(=O)NC6=O)C7=O)CC5)CSc5ccccc5)c(S(=O)(=O)C(F)(F)F)c4)cc3)CC2)C1` (stereo partly drawn) [XZ-14516, 4-(4-((2-(4-chlorophenyl)-5,5-dimethylcyclohex-1-enyl)methyl)piperazin-1-yl)-N-(4-((2R)-4-(4-(2-(2-(2-(2-(2,6-dioxopiperidin-3-yl)-1,3-dioxoisoindolin-4-ylamino)ethoxy)ethoxy)ethylcarbamothioyl)piperazin-1-yl)-1-(phenylthio)butan-2-ylamino)-3-(trifluoromethylsulfonyl)phenylsulfonyl)benzamide], the EC50 with Normal WI38 (NSC) was > 10000 nM; with NCI-H146 cancer cells it was 517 nM; in assay [1] it was 92 nM; in the assay with RS4; 11 cancer cells, 1090 nM. Besides, the “Ratio NSC/SC” value in assay [1] was >109.

In the case of `CC1(C)CCC(CN2CCN(c3ccc(C(=O)NS(=O)(=O)c4ccc(NCC5CCN(C(=O)COCCOCCOCCNc6cccc7c6C(=O)N(C6CCC(=O)NC6=O)C7=O)CC5)c([N+](=O)[O-])c4)c(Oc4cnc5[nH]ccc5c4)c3)CC2)=C(c2ccc(Cl)cc2)C1` (stereo not drawn) [XZ-14522], the EC50 is > 10000 nM with Normal WI38 (NSC), 1100 nM in the assay on NCI-H146 cancer cells, > 10000 nM in assay [1] and 47 nM in the assay on RS4; 11 cancer cells.

Regarding `Cc1ncsc1-c1ccc(CNC(=O)[C@@H]2C[C@@H](O)CN2C(=O)[C@@H](NC(=O)COCCOCCOCc2cn(CCCC(=O)N3CCN(CC#Cc4ccc(OCCCc5sc(N6CCc7cccc(C(=O)Nc8nc9ccccc9s8)c7C6)nc5C(=O)O)c(F)c4)CC3)nn2)C(C)(C)C)cc1` [XZ-14455, 2-(8-(benzo[d]thiazol-2-ylcarbamoyl)-3,4-dihydroisoquinolin-2(1H)-yl)-5-(3-(2-fluoro-4-(3-(4-(4-(4-((S)-12-((2S,4R)-4-hydroxy-2-((4-(4-methylthiazol-5-yl)benzyl)carbamoyl)pyrrolidine-1-carbonyl)-13,13-dimethyl-10-oxo-2,5,8-trioxa-11-azatetradecyl)-1H-1,2,3-triazol-1-yl)butanoyl)piperazin-1-yl)-prop-1-yn-1-yl)phenoxy)propyl)thiazole-4-carboxylic acid], the half-maximal effective concentration (EC50) was 5000 nM in the assay with Normal WI38 (NSC), > 2000 nM in the assay on NCI-H146 cancer cells, 1470 nM in assay [1] and > 2000 nM in the assay with RS4; 11 cancer cells. Moreover, the “Ratio NSC/SC” value in assay [1] came to 3.40.

As for `CC1(C)CCC(c2ccc(Cl)cc2)=C(CN2CCN(c3ccc(C(=O)NS(=O)(=O)c4ccc(N[C@H](CCN5CCN(C(=O)COCCOCCNc6cccc7c6C(=O)N(C6CCC(=O)NC6=O)C7=O)CC5)CSc5ccccc5)c(S(=O)(=O)C(F)(F)F)c4)cc3)CC2)C1` (stereo partly drawn) [XZ-14515], the EC50 with Normal WI38 (NSC) was > 10000 nM; with NCI-H146 cancer cells it was 79.2 nM; in assay [1], 158 nM; in the assay on RS4; 11 cancer cells, 173 nM. Moreover, the “Ratio NSC/SC” value in assay [1] is on record as >63.27.

For the compound `Cc1ncsc1-c1ccc(CNC(=O)[C@@H]2C[C@@H](O)CN2C(=O)[C@@H](NC(=O)CCC(=O)NCCOCCOCCNC(=O)N2CCN(CC[C@H](CSc3ccccc3)Nc3ccc(S(=O)(=O)NC(=O)c4ccc(N5CCN(CC6=C(c7ccc(Cl)cc7)CCC(C)(C)C6)CC5)cc4)cc3S(=O)(=O)C(F)(F)F)CC2)C(C)(C)C)cc1` [XZ-14529], the EC50 was > 10000 nM in the assay with Normal WI38 (NSC), > 2000 nM in the assay with NCI-H146 cancer cells, > 10000 nM in assay [1] and 823 nM with RS4; 11 cancer cells.

As to `CC1(C)CCC(c2ccc(Cl)cc2)=C(CN2CCN(c3ccc(C(=O)NS(=O)(=O)c4ccc(N[C@H](CCN5CCN(C(=O)COCCOCCOCCOCCNc6cccc7c6C(=O)N(C6CCC(=O)NC6=O)C7=O)CC5)CSc5ccccc5)c(S(=O)(=O)C(F)(F)F)c4)cc3)CC2)C1` (stereo partly drawn) [XZ-14540], the EC50 is > 10000 nM in the assay with Normal WI38 (NSC), 76.2 nM in the assay on NCI-H146 cancer cells, 1130 nM in assay [1] and 82.4 nM in the assay on RS4; 11 cancer cells. Also, in assay [1], the “Ratio NSC/SC” value was determined as 8.86.

Turning to `Cc1ncsc1-c1ccc(CNC(=O)[C@@H]2C[C@@H](O)CN2C(=O)[C@@H](NC(=O)CCC(=O)NCCOCCOCCNC(=O)N2CCC(CNc3ccc(S(=O)(=O)NC(=O)c4ccc(N5CCN(CC6=C(c7ccc(Cl)cc7)CC(C)(C)CC6)CC5)cc4Oc4cnc5[nH]ccc5c4)cc3[N+](=O)[O-])CC2)C(C)(C)C)cc1` [XZ-14528, N1-(2-(2-(2-(4-(((4-N-(2-((1H-pyrrolo[2,3-b]pyridin-5-yl)oxy)-4-(4-((4′-chloro-5,5-dimethyl-3,4,5,6-tetrahydro-(1,1′-biphenyl-2-yl)methyl)piperazin-1-yl)benzoyl)sulfamoyl)-2-nitrophenyl)amino)methyl)piperidine-1-carboxamido)ethoxy)ethoxy)ethyl)-N4-((S)-1-((2S,4R)-4-hydroxy-2-((4-(4-methylthiazol-5-yl)benzyl)carbamoyl)pyrrolidin-1-yl)-3,3-dimethyl-1-oxobutan-2-yl)succinamide], the EC50 in the assay with Normal WI38 (NSC) is > 10000 nM; with NCI-H146 cancer cells, > 2000 nM; in assay [1], > 10000 nM; in the assay with RS4; 11 cancer cells it was 397 nM.

Regarding `CC1(C)CCC(c2ccc(Cl)cc2)=C(CN2CCN(c3ccc(C(=O)NS(=O)(=O)c4ccc(N[C@H](CCN5CCOCC5)CSc5ccccc5)c(S(=O)(=O)C(F)(F)F)c4)cc3)CC2)C1` [ABT-263, navitoclax, reference compound], the EC50 in the assay on Normal WI38 (NSC) came out at 12600 nM; with NCI-H146 cancer cells it was 27.5 nM; in assay [1] it was 610 nM; in the assay on RS4; 11 cancer cells it was 16 nM. Moreover, the “Ratio NSC/SC” value in assay [1] amounted to 20.6.

Turning to `CC1(C)CCC(c2ccc(Cl)cc2)=C(CN2CCN(c3ccc(C(=O)NS(=O)(=O)c4ccc(N[C@H](CCN5CCN(C(=O)NCCOCCOCCNc6cccc7c6C(=O)N(C6CCC(=O)NC6=O)C7=O)CC5)CSc5ccccc5)c(S(=O)(=O)C(F)(F)F)c4)cc3)CC2)C1` (stereo partly drawn) [XZ-14509, 4-((R)-3-(4-(N-(4-(4-((2-(4-chlorophenyl)-5,5-dimethylcyclohex-1-enyl)methyl)piperazin-1-yl)benzoyl)sulfamoyl)-2-(trifluoromethylsulfonyl)phenylamino)-4-(phenylthio)butyl)-N-(2-(2-(2-(2-(2,6-dioxopiperidin-3-yl)-1,3-dioxoisoindolin-4-ylamino)ethoxy)ethoxy)ethyl)piperazine-1-carboxamide], the EC50 is > 10000 nM in the assay on Normal WI38 (NSC), 65 nM in the assay with NCI-H146 cancer cells, 226 nM in assay [1] and 90 nM in the assay on RS4; 11 cancer cells. Further, the “Ratio NSC/SC” value in assay [1] is recorded as >44.22.
